# Like-named read-outs stand apart in the source and are kept apart here.
# Tests used:
# [1] = tested on: jejunal mucosal 5-HT in mice (C57 BL6); experiment: Reduction of mucosal 5-HT concentrations (Example C, repeated oral dosing); type: in vivo, mouse; details: after three oral doses (first 10 or 50 mg/kg, then two doses of 50 mg/kg) (title), P-value class
# Description: The efficacy of the TPH1 inhibitors of the invention was assessed for the ability to decrease intestinal serotonin concentration in mice. Mice (C57 BL6) were administered an oral dose of 10 or 50 mg/kg of the test article in the evening. […] Following an overnight fast, each animal was euthanized by exsanguination under isoflurane anesthesia. Jejunal intestinal mucosa was isolated and homogenized in […] of a buffer containing 0.3M trichloroacetic acid, 0.1M sodium acetate, 10 mM EDTA, 20 mM sodium bisulfate and 50 mM ascorbic acid. Following centrifugation the 5-HT levels in the supernatants were measured by HPLC. The remaining mucosal pellet was solubilized overnight at 37° C. in a 0.1% sodium dodecyl sulfate buffer in 0.1N NaOH followed by determination of protein concentrations using a BCA protein assay (Pierce, Rockford, Ill.). 5-HT levels were normalized to protein and data were expressed as mean percent reduction of mucosal 5-HT levels relative to vehicle control±SEM (percent 5-HT reduction). All animal studies were carried out with protocols approved by the Institutional Animal Care and Use Committee. P-values, indicating statistical significance of the data (ANOVA) are provided in the table: * refers to P<0.05,** refers to P<0.01, *** refers to P<0.005, and **** refers to P<0.0005.
# [2] = biological target: T1, Recombinant human TPH1 (MBP tagged) (Homo sapiens, UniProt P17752); experiment: TPH1 in vitro inhibition assay (kinetic fluorescence); type: biochemical
# T1 construct: cloning full length human TPH1 cDNA in to a bacterial pMAL-c5E expression vector; made in house; host or cells: E. coli BL21 (DE3)
# T1 sequence (P17752 1-444): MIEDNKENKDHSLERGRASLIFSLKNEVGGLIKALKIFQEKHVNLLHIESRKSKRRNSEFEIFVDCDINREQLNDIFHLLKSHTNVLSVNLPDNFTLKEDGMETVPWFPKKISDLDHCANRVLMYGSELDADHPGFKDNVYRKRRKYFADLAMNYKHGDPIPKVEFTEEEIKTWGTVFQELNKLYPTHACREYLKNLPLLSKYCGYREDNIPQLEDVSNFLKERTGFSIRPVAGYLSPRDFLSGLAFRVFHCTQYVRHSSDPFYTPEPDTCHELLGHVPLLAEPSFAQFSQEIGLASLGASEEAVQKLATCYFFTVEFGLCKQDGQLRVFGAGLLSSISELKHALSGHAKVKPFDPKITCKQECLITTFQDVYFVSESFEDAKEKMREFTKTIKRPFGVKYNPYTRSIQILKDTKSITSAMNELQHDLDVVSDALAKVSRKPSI
# Summary of the method: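 Final mix: 15 nM MBP-TPH1, 30 μM Trp, 36 μM 6-methyltetrahydropterin, 25 μM ferrous ammonium sulfate, 50 mM MES pH 7.1, 1% DMSO, room temperature.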
# [3] = tested on: jejunal mucosal 5-HT in mice (C57 BL6); experiment: Intestinal 5-HT depletion assay (Example B, single 150 mg/kg oral dose); type: in vivo, mouse; details: one day after oral administration of a single 150 mg/kg dose, P-value class (ANOVA)
# Summary of the method: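 C57 BL6 mice received one 150 mg/kg oral gavage dose; jejunal mucosa was homogenized in acidic trichloroacetic acid buffer and 5-HT measured by HPLC. Levels normalized to BCA protein, expressed as mean percent reduction versus vehicle ± SEM; ANOVA significance.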
# [4] = read-out: TPH1 Range (TPH1 inhibition IC50)
"IC50 [2, 4] [nM]",Structure (SMILES),Efficacy (statistical significance of reduction of mucosal 5-HT concentrations relative to vehicle) [1],Efficacy (statistical significance of reduction of mucosal 5-HT concentrations relative to vehicle) [3],IC50 ([2]; TPH1 Range (TPH1 inhibition IC50)) [nM]
–,"CCOC(=O)[C@@H]1CC2(CCN(c3cc(O[C@H](c4ccc(Cl)cc4-c4cccc(F)c4)C(F)(F)F)nc(N)n3)CC2)CN1 [Example 63ev, (S)-ethyl 8-(2-amino-6-((R)-1-(5-chloro-3′-fluoro-[1,1′-biphenyl]-2-yl)-2,2,2-trifluoroethoxy)pyrimidin-4-yl)-2,8-diazaspiro[4.5]decane-3-carboxylate]",*** (*** refers to P<0.005),–,–
–,"CCOC(=O)[C@@H]1CC2(CCN(c3cc(O[C@H](c4ccc(Cl)cc4-c4cccc(OC)c4)C(F)(F)F)nc(N)n3)CC2)CN1 [Example 63ep, (S)-ethyl 8-(2-amino-6-((R)-1-(5-chloro-3′-methoxy-[1,1′-biphenyl]-2-yl)-2,2,2-trifluoroethoxy)pyrimidin-4-yl)-2,8-diazaspiro[4.5]decane-3-carboxylate]",*** (*** refers to P<0.005),–,–
–,"CCOC(=O)[C@@H]1CC2(CCN(c3cc(O[C@H](c4ccc(Cl)cc4-c4ccccc4)C(F)(F)F)nc(N)n3)CC2)CN1 [Example 63i, (S)-ethyl 8-(2-amino-6-((R)-1-(5-chloro-[1,1′-biphenyl]-2-yl)-2,2,2-trifluoroethoxy)pyrimidin-4-yl)-2,8-diazaspiro[4.5]decane-3-carboxylate]",*** (*** refers to P<0.005),–,–
–,"CCOC(=O)[C@@H]1CC2(CCN(c3cc(O[C@H](c4ccc(Cl)cc4-c4cccc(C(F)(F)F)c4)C(F)(F)F)nc(N)n3)CC2)CN1 [Example 63ar, (S)-ethyl 8-(2-amino-6-((R)-1-(5-chloro-3′-(trifluoromethyl)-[1,1′-biphenyl]-2-yl)-2,2,2-trifluoroethoxy)pyrimidin-4-yl)-2,8-diazaspiro[4.5]decane-3-carboxylate]",**** (**** refers to P<0.0005),–,–
–,"CC(C)OC(=O)[C@@H]1CC2(CCN(c3cc(O[C@H](c4ccc(Cl)cc4-c4ccccc4)C(F)(F)F)nc(N)n3)CC2)CN1 [Example 69a, (S)-isopropyl 8-(2-amino-6-((R)-1-(5-chloro-[1,1′-biphenyl]-2-yl)-2,2,2-trifluoroethoxy)pyrimidin-4-yl)-2,8-diazaspiro[4.5]decane-3-carboxylate]",*** (*** refers to P<0.005),–,–
–,"CCCOC(=O)[C@@H]1CC2(CCN(c3cc(O[C@H](c4ccc(Cl)cc4-c4ccccc4)C(F)(F)F)nc(N)n3)CC2)CN1 [Example 69c, (S)-propyl 8-(2-amino-6-((R)-1-(5-chloro-[1,1′-biphenyl]-2-yl)-2,2,2-trifluoroethoxy)pyrimidin-4-yl)-2,8-diazaspiro[4.5]decane-3-carboxylate]",*** (*** refers to P<0.005),–,–
–,"CCOC(=O)[C@@H]1CC2(CCN(c3cc(O[C@H](c4ccc(-c5ccc(OC)cc5)cc4-n4ccc(C)n4)C(F)(F)F)nc(N)n3)CC2)CN1 [Example 63ha, (S)-ethyl 8-(2-amino-6-((R)-2,2,2-trifluoro-1-(4′-methoxy-3-(3-methyl-1H-pyrazol-1-yl)-[1,1′-biphenyl]-4-yl)ethoxy)pyrimidin-4-yl)-2,8-diazaspiro[4.5]decane-3-carboxylate]",** (** refers to P<0.01),–,–
–,"CCOC(=O)[C@@H]1CC2(CCN(c3cc(O[C@H](c4ccccc4-c4cccc(Cl)c4)C(F)(F)F)nc(N)n3)CC2)CN1 [Example 63eo, (S)-ethyl 8-(2-amino-6-((R)-1-(3′-chloro-[1,1′-biphenyl]-2-yl)-2,2,2-trifluoroethoxy)pyrimidin-4-yl)-2,8-diazaspiro[4.5]decane-3-carboxylate]",*** (*** refers to P<0.005),–,–
–,"CCOC(=O)[C@@H]1CC2(CCN(c3cc(O[C@H](c4ccc(Cl)cc4-c4cccc(C)c4)C(F)(F)F)nc(N)n3)CC2)CN1 [Example 63aq, (S)-ethyl 8-(2-amino-6-((R)-1-(5-chloro-3′-methyl-[1,1′-biphenyl]-2-yl)-2,2,2-trifluoroethoxy)pyrimidin-4-yl)-2,8-diazaspiro[4.5]decane-3-carboxylate]",*** (*** refers to P<0.005),–,–
< 50,"Nc1nc(O[C@H](c2ccc(Cl)cc2-c2cccc(O)c2)C(F)(F)F)cc(N2CCC3(CC2)CN[C@H](C(=O)O)C3)n1 [Example 34v, (S)-8-(2-amino-6-((R)-1-(5-chloro-3′-hydroxy-[1,1′-biphenyl]-2-yl)-2,2,2-trifluoroethoxy)pyrimidin-4-yl)-2,8-diazaspiro[4.5]decane-3-carboxylic acid]",–,* (* refers to P<0.05),–
< 50,"Nc1nc(O[C@H](c2ccc(-c3ccc4c(c3)CCNC4=O)cc2)C(F)(F)F)cc(N2CCC3(CC2)CN[C@H](C(=O)O)C3)n1 [Example 55bc, (S)-8-(2-amino-6-((R)-2,2,2-trifluoro-1-(4-(1-oxo-1,2,3,4-tetrahydroisoquinolin-6-yl)phenyl)ethoxy)pyrimidin-4-yl)-2,8-diazaspiro[4.5]decane-3-carboxylic acid]",–,** (** refers to P<0.01),–
< 50,"Cc1ccn(-c2cc(-c3ccncc3)ccc2[C@@H](Oc2cc(N3CCC4(CC3)CN[C@H](C(=O)O)C4)nc(N)n2)C(F)(F)F)n1 [Example 1g, (S)-8-(2-amino-6-((R)-2,2,2-trifluoro-1-(2-(3-methyl-1H-pyrazol-1-yl)-4-(pyridin-4-yl)phenyl)ethoxy)pyrimidin-4-yl)-2,8-diazaspiro[4.5]decane-3-carboxylic acid]",–,*** (*** refers to P<0.005),–
< 50,"Cc1ccn(-c2cc(-c3cnn(C)c3)ccc2[C@@H](Oc2cc(N3CCC4(CC3)CN[C@H](C(=O)O)C4)nc(N)n2)C(F)(F)F)n1 [Example 1h, (S)-8-(2-amino-6-((R)-2,2,2-trifluoro-1-(2-(3-methyl-1H-pyrazol-1-yl)-4-(1-methyl-1H-pyrazol-4-yl)phenyl)ethoxy)pyrimidin-4-yl)-2,8-diazaspiro[4.5]decane-3-carboxylic acid]",–,** (** refers to P<0.01),–
–,"CS(=O)(=O)c1cccc(-c2cc(Cl)ccc2[C@@H](Oc2cc(N3CCC4(CC3)CN[C@H](C(=O)O)C4)nc(N)n2)C(F)(F)F)c1 [Example 34w, (S)-8-(2-amino-6-((R)-1-(5-chloro-3′-(methylsulfonyl)-[1,1′-biphenyl]-2-yl)-2,2,2-trifluoroethoxy)pyrimidin-4-yl)-2,8-diazaspiro[4.5]decane-3-carboxylic acid]",–,*** (*** refers to P<0.005),< 50
< 50,"Cc1n[nH]c2cc(-c3ccc([C@@H](Oc4cc(N5CCC6(CC5)CN[C@H](C(=O)O)C6)nc(N)n4)C(F)(F)F)cc3)ccc12 [Example 55az, (S)-8-(2-amino-6-((R)-2,2,2-trifluoro-1-(4-(3-methyl-1H-indazol-6-yl)phenyl)ethoxy)pyrimidin-4-yl)-2,8-diazaspiro[4.5]decane-3-carboxylic acid]",–,*** (*** refers to P<0.005),–
50 to 300,"Cc1ccn(-c2ccc(Cl)cc2[C@@H](Oc2cc(N3CCC4(CC3)CNC(C(=O)O)C4)nc(N)n2)C(F)(F)F)n1 (stereo partly drawn) [Example 10k, 8-(2-amino-6-((R)-1-(5-chloro-2-(3-methyl-1H-pyrazol-1-yl)phenyl)-2,2,2-trifluoroethoxy)pyrimidin-4-yl)-2,8-diazaspiro[4.5]decane-3-carboxylic acid]",–,* (* refers to P<0.05),–

# From US11759462B2, “Spirocyclic compounds as tryptophan hydroxylase inhibitors” (priority 2013, dated 2023)
